Measured values as given in publication PMC6556873, “Rapid Covalent-Probe Discovery by Electrophile-Fragment Screening” (Journal of the American Chemical Society, 2019).
Like-named read-outs stand apart in the source and are kept apart here.

Assays:
in vitro [1] = assay: in vitro; parameters: species or system HB2, HEK293; conditions: human, ccd841 cells
in vitro [2] = assay: in vitro; parameters: species or system HB2, CCD841; conditions: human, hek293 cells
in vitro [3] = assay: in vitro; parameters: species or system CCD841, HEK293; conditions: human, hb2 cells, read-out: HB-2 Cells Viability (%)
BSA = target: T1, BSA (Bos taurus, UniProt P02769); parameters: Intact protein LC/MS covalent labelling, fragments in pools of five, 200 uM each, 4 °C; conditions: 24 h, 4 °C, pool of five; 200 µM; covalent
T1 construct: gene ALB

PCAF = target: T2, PCAF (Homo sapiens, UniProt Q92831); parameters: Intact protein LC/MS covalent labelling, fragments in pools of five, 200 uM each, 4 °C; conditions: 24 h, 4 °C, pool of five; 200 µM; covalent
T2 construct: gene KAT2B

NUDT7 = target: T3, NUDT7 (Homo sapiens, UniProt P0C024); parameters: Intact protein LC/MS covalent labelling, fragments in pools of five, 200 uM each, 4 °C; conditions: 24 h, 4 °C, pool of five; 200 µM; covalent
T3 construct: residues 14-235, E. coli, pNIC28-Bsa4, N-terminal His6 tag removed by TEV, construct 26672 Da

OTUB2 (OTUB2A) = target: T4, OTUB2 (OTUB2A) (Homo sapiens, UniProt Q96DC9); parameters: Intact protein LC/MS covalent labelling, fragments in pools of five, 200 uM each, 4 °C; conditions: 24 h, 4 °C, pool of five; 200 µM; covalent
T4 construct: full length residues 1-234, E. coli BL21(DE3)-R3, His tag removed by TEV, construct 27312 Da
T4 sequence (Q96DC9 1-234): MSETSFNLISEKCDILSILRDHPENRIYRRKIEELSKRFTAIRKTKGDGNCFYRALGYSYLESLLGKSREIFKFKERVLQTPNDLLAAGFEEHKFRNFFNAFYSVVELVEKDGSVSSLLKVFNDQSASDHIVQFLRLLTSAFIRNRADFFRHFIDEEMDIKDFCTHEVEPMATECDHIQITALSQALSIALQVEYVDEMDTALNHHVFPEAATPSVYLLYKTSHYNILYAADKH

T1 sequence (P02769 whole entry, the tested form may be a part): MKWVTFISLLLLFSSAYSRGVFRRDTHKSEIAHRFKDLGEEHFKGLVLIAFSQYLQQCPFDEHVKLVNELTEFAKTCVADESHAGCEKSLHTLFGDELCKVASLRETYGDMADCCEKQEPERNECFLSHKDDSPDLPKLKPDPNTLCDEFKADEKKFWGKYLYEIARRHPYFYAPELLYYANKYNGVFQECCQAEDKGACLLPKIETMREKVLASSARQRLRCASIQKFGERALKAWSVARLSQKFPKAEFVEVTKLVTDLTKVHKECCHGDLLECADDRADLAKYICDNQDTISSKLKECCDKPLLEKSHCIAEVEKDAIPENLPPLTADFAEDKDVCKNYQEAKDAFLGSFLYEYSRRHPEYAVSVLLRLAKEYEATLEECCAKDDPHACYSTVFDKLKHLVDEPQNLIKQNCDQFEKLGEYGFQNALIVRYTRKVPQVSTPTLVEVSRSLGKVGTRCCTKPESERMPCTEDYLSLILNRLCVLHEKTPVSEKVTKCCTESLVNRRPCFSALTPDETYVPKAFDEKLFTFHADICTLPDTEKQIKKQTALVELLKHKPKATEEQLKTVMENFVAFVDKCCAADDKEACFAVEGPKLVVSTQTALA
T3 sequence (P0C024 14-235): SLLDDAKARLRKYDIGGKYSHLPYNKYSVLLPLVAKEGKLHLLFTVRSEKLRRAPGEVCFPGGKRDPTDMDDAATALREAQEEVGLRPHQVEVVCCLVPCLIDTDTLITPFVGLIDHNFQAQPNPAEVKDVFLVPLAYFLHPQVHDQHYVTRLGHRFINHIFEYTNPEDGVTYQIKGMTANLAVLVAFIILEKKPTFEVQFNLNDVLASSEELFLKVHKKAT
T2 sequence (Q92831 whole entry, the tested form may be a part): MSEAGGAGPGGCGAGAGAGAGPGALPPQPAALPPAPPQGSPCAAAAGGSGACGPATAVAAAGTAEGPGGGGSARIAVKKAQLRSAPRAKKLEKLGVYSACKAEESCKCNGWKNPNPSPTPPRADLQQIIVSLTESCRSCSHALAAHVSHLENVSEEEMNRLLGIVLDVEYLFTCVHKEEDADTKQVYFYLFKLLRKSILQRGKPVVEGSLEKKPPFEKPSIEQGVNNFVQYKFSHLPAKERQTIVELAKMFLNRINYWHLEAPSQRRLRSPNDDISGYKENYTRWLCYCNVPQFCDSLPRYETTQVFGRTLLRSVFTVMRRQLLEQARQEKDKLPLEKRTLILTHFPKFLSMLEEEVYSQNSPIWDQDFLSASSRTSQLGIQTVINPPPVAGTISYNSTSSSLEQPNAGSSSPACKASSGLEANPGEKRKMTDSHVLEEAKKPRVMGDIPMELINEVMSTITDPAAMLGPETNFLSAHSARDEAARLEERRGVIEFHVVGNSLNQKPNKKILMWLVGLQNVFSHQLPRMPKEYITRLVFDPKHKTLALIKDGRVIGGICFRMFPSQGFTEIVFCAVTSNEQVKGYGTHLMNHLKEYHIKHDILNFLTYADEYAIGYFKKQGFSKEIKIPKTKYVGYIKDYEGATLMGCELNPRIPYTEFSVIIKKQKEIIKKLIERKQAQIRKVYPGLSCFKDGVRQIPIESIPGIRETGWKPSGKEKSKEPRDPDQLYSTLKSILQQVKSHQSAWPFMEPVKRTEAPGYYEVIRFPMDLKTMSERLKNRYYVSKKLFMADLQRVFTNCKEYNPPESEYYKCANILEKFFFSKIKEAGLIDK

| Structure (SMILES) | viability at 48 h, 10 µM (in vitro [1]) | viability at 48 h, 10 µM (in vitro [2]) | viability at 48 h, 10 µM (in vitro [3]) | BSA (BSA) | PCAF (PCAF) | NUDT7 (NUDT7) | OTUB2 (OTUB2 (OTUB2A)) |
| --- | --- | --- | --- | --- | --- | --- | --- |
| O=C(CCl)NNC(=O)c1ccco1 [PCM-0102985] | 89.7% | 100% | 96.9% | 0.2 | 0 | 0 | 0.27 |
| C=CC(=O)N1CCC(n2cccn2)CC1 [PCM-0102555] | 104% | 109% | 102% | 0 | 0 | 0 | 0 |
| CN(C(=O)CCl)C1(c2ccccc2Cl)CCCCC1=O (stereo not drawn) [PCM-0102359] | 104% | 87.5% | 85.2% | 0 | 0 | 0 | 0 |
| Cc1ccc(N(C(=O)CCl)C2C=CS(=O)(=O)C2)cc1 (stereo not drawn) [PCM-0102539] | 31.5% | 4.7% | 23.3% | 0 | 0 | 0.33 | 0.16 |
| Cn1nc(-c2ccc(Cl)cc2)cc1NC(=O)CCl [PCM-0102296] | 4.5% | 0.5% | 1.6% | 0 | 0 | 0.54 | 0.38 |
| CN(CC(=O)NC(C)(C)C)C(=O)CCl [PCM-0102259] | 85.2% | 69% | 97.2% | 0 | 0 | 0 | 0 |
| C=CC(=O)N1CC(NC(=O)C(F)(F)F)CCC1C(F)(F)F (stereo not drawn) [PCM-0102603] | 104% | 110% | 97.9% | 0 | 0 | 0 | 0 |
| O=C(CCl)Nc1ccc(F)c(F)c1 [PCM-0102328] | 30.4% | 1.4% | 14.3% | 0.24 | 0 | 0 | 0.31 |
| CC(=O)c1cccc(N2Cc3ccccc3C2=NC(=O)CCl)c1 [PCM-0102283] | 99.5% | 75% | 99.6% | 0 | 0 | 0 | 0 |
| O=C(CCl)NC(=O)NCC(F)(F)F [PCM-0103037] | 78.2% | 95.7% | 89% | 0 | 0 | 0 | 0.3 |
| O=C(CCl)Nc1ccc(C(F)(F)F)cc1 [PCM-0102323] | 53.2% | 5.5% | 11.1% | 0 | 0 | 0.07 | 0.17 |
| O=C(CCl)Nc1cc(F)cc(F)c1 [PCM-0102874] | 58.3% | 3.1% | 14.3% | 0 | 0 | 0.18 | 0 |
| CN(C)C(=O)c1cccc(NC(=O)CCl)c1 [PCM-0102345] | 61.4% | 13.8% | 52.9% | 0 | 0 | 0.1 | 0 |
| O=C(CCl)Nc1ccc(-c2nnc3n2CCCCC3)cc1 [PCM-0102101] | 61.9% | 17.5% | 36.7% | 0 | 0 | 0 | 0.28 |
| C=CC(=O)N1CC(OC(=O)Nc2cccc(F)c2)C1 [PCM-0102688] | 99% | 95.8% | 82.3% | 0 | 0 | 0 | 0.17 |
| COC(=O)c1ccc(C)c(NC(=O)CCl)c1 [PCM-0103027] | 54.7% | 22.1% | 34.3% | 0 | 0 | 0.05 | 0 |
| CC(=O)Nc1ccc(NC(=O)CCl)c(C(F)(F)F)c1 [PCM-0102895] | 91.7% | 82% | 97.1% | 0 | 0 | 0 | 0 |
| Cc1c(Cl)cccc1NC(=O)CCl [PCM-0102130] | 48.1% | 4.9% | 26% | 0 | 0 | 0 | 0 |
| O=C(O)C1Cc2ccccc2CN1C(=O)CCl (stereo not drawn) [PCM-0102761] | 91.2% | 95.9% | 98.1% | 0 | 0 | 0.21 | 0 |
| C=CC(=O)N1CCCN(Cc2cn3cc(Cl)ccc3n2)CC1 [PCM-0102565] | 104% | 105% | 106% | 0 | 0 | 0.18 | 0 |
| C=CC(=O)N1CC(Oc2ccc(C#N)cc2)C1 [PCM-0103059] | 90.8% | 73.3% | 98.1% | 0 | 0 | 0 | 0.07 |
| Cl.O=C(CCl)Nc1ccc(N2CCCC2)cc1 [PCM-0102670] | 41.8% | 30.3% | 35% | 0 | 0 | 0 | 0.48 |
| CC(c1ccccc1)N(C)C(=O)CCl (stereo not drawn) [PCM-0102478] | 60.7% | 27.5% | 27.5% | 0 | 0 | 0.1 | 0 |
| CC(NC(=O)CCl)c1ccccc1Cl (stereo not drawn) [PCM-0102110] | 74.2% | 65.7% | 70.8% | 0 | 0 | 0 | 0.25 |
